Measured values published in ChEMBL document CHEMBL4680240, “Tail approach synthesis of novel benzenesulfonamides incorporating 1,3,4-oxadiazole hybrids as potent inhibitor of carbonic anhydrase I, II, IX, and XII isoenzymes” (Eur J Med Chem, 2020).

Assays:
[1] = molecular target: Carbonic anhydrase 1 (Homo sapiens, UniProt P00915); assay: Inhibition of recombinant human carbonic anhydrase 1 incubated for 10 mins prior to testing measured for 5 to 10 secs by phenol red-based stopped-flow CO2 hydration assay
Sequence of Carbonic anhydrase 1 (P00915 whole entry): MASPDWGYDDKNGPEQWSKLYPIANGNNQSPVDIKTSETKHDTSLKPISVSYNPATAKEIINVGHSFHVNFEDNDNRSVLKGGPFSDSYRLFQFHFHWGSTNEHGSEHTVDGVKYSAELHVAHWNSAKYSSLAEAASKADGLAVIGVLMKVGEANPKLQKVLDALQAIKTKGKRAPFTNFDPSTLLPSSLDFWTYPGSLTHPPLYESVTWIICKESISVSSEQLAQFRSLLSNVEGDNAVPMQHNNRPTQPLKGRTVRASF

[2] = molecular target: Carbonic anhydrase 12 (Homo sapiens, UniProt O43570); assay: Inhibition of recombinant human carbonic anhydrase 12 incubated for 10 mins prior to testing measured for 5 to 10 secs by phenol red-based stopped-flow CO2 hydration assay
Sequence of Carbonic anhydrase 12 (O43570 whole entry): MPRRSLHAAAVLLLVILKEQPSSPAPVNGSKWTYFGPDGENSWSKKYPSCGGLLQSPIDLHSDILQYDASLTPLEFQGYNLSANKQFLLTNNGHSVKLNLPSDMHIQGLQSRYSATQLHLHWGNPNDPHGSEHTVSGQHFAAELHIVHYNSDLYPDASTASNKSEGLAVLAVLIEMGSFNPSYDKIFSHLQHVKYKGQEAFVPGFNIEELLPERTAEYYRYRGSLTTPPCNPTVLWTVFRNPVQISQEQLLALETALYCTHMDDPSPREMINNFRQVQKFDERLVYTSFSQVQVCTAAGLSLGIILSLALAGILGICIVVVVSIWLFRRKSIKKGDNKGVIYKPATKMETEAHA

[3] = molecular target: Carbonic anhydrase 2 (Homo sapiens, UniProt P00918); assay: Inhibition of recombinant human carbonic anhydrase 2 incubated for 10 mins prior to testing measured for 5 to 10 secs by phenol red-based stopped-flow CO2 hydration assay
[4] = molecular target: Carbonic anhydrase 9 (Homo sapiens, UniProt Q16790); assay: Inhibition of recombinant human carbonic anhydrase 9 incubated for 10 mins prior to testing measured for 5 to 10 secs by phenol red-based stopped-flow CO2 hydration assay

Row | SMILES | Ki [1] [nM] | Ki [2] [nM] | Ki [3] [nM] | Ki [4] [nM]
1 | NS(=O)(=O)c1ccc(-c2nnc(SCC(=O)Nc3ccc([N+](=O)[O-])cc3)o2)cc1 | 762 | 737 | 73.1 | 256
2 | COc1ccc(NC(=O)CSc2nnc(-c3ccc(S(N)(=O)=O)cc3)o2)cc1 | 2920 | 266 | 53.6 | 29
3 | NS(=O)(=O)c1ccc(-c2nnc(SCC(=O)Nc3ccc(Br)cc3)o2)cc1 | 3900 | 751 | 848 | 671
4 | NS(=O)(=O)c1ccc(-c2nnc(SCC(=O)Nc3ccc(F)cc3)o2)cc1 | 711 | 588 | 85.7 | 163
5 | NS(=O)(=O)c1ccc(-c2nnc(SCC(=O)Nc3cccc([N+](=O)[O-])c3)o2)cc1 | 73.2 | 257 | 7.9 | 16.3
6 | Cc1ccc(C(=O)CSc2nnc(-c3ccc(S(N)(=O)=O)cc3)o2)cc1 | 3320 | 231 | 148 | 201
7 | COc1ccc(C(=O)CSc2nnc(-c3ccc(S(N)(=O)=O)cc3)o2)cc1 | 3810 | 3620 | 158 | 449
8 | NS(=O)(=O)c1ccc(-c2nnc(SCC(=O)c3ccccc3)o2)cc1 | 1360 | 265 | 347 | 757
9 | NS(=O)(=O)c1ccc(-c2nnc(SCC(=O)Nc3ccccc3)o2)cc1 | 542 | 366 | 61.1 | 111
10 | NS(=O)(=O)c1ccc(-c2nnc(SCC(=O)Nc3cccc(Cl)c3)o2)cc1 | 501 | 400 | 81.9 | 50.8

Next, values leading:

Row | Ki [1] [nM] | Ki [2] [nM] | Ki [3] [nM] | Ki [4] [nM] | SMILES
11 | 470 | 492 | 79.6 | 1330 | COc1cccc(C(=O)CSc2nnc(-c3ccc(S(N)(=O)=O)cc3)o2)c1
12 | 595 | 840 | 67.3 | 1320 | NS(=O)(=O)c1ccc(-c2nnc(SCC(=O)c3ccc(Cl)cc3)o2)cc1
13 | 2080 | 838 | 96 | 757 | NS(=O)(=O)c1ccc(-c2nnc(SCC(=O)Nc3ccc(Cl)cc3)o2)cc1
14 | 544 | 383 | 59.2 | 1250 | NS(=O)(=O)c1ccc(-c2nnc(SCC(=O)c3cccc(Cl)c3)o2)cc1
15 | 617 | 636 | 67 | 1750 | NS(=O)(=O)c1ccc(-c2nnc(SCC(=O)c3ccc(Br)cc3)o2)cc1
16 | 669 | 577 | 58.5 | 566 | NS(=O)(=O)c1ccc(-c2nnc(SCC(=O)c3cccc([N+](=O)[O-])c3)o2)cc1
17 | 739 | 263 | 78.7 | 74.1 | Cc1ccc(NC(=O)CSc2nnc(-c3ccc(S(N)(=O)=O)cc3)o2)cc1
18 | 70.7 | 294 | 29.5 | 633 | NS(=O)(=O)c1ccc(-c2nnc(SCC(=O)c3ccc([N+](=O)[O-])cc3)o2)cc1
19 | 673 | 690 | 69.8 | 53.1 | COc1cccc(NC(=O)CSc2nnc(-c3ccc(S(N)(=O)=O)cc3)o2)c1
20 | 744 | 2240 | 69.4 | 1980 | NS(=O)(=O)c1ccc(-c2nnc(SCC(=O)c3ccc(F)cc3)o2)cc1
